From ChEMBL document CHEMBL1641593, “Benzothieno[3,2-b]quinolinium and 3-(phenylthio)quinolinium compounds: Synthesis and evaluation against opportunistic fungal pathogens” (Bioorg Med Chem, 2011)
Converted amounts (≈) assume the structure as drawn. The source made the active and inactive calls. The calls are words filed in the database; no cut-off is given here.

Tests used:
Aspergillus fumigatus [1] = experiment: Antifungal activity against Aspergillus fumigatus ATCC 90906 by CLSI method; assay type: functional, organism-based
Cryptococcus neoformans [2] = experiment: Antifungal activity against Cryptococcus neoformans ATCC 90113 by CLSI method; assay type: functional, organism-based
Candida albicans [3] = experiment: Antifungal activity against Candida albicans ATCC 90028 by CLSI method; assay type: functional, organism-based; conditions: Candida albicans, ATCC 90028
Mus musculus [4] = experiment: Toxicity in Cryptococcus neoformans ATCC 52657 infected mouse assessed as pathological lesions at 10 mg/kg, ip qd for 5 days; assay type: organism-based; design: dose 10 mg/kg, route intraperitoneal; conditions: in vivo, 120 h
Mus musculus [5] = experiment: Toxicity in Cryptococcus neoformans ATCC 52657 infected mouse assessed as change in body weight at 10 mg/kg, ip qd for 5 days; assay type: organism-based; design: dose 10 mg/kg, route intraperitoneal; conditions: in vivo, 120 h
Vero = experiment: Cytotoxicity against african green monkey Vero cells after 48 hrs by neutral red assay; assay type: cell-based; conditions: Chlorocebus sabaeus
Mus musculus [6] = experiment: Toxicity in Cryptococcus neoformans ATCC 52657 infected mouse assessed as signs of discomfort at 10 to 20 mg/kg, ip qd for 5 days; assay type: organism-based; design: dose 10-20 mg/kg, route intraperitoneal; conditions: in vivo, 120 h
Mus musculus [7] = experiment: Toxicity in Cryptococcus neoformans ATCC 52657 infected mouse assessed as change in gross pathology of kidney at 10 to 20 mg/kg, ip qd for 5 days; assay type: organism-based; design: dose 10-20 mg/kg, route intraperitoneal; conditions: in vivo, 120 h
Mus musculus [8] = experiment: Toxicity in Cryptococcus neoformans ATCC 52657 infected mouse assessed as change in body weight at 20 mg/kg, ip qd for 5 days; assay type: organism-based; design: dose 20 mg/kg, route intraperitoneal; conditions: in vivo, 120 h
Mus musculus [9] = experiment: Toxicity in Cryptococcus neoformans ATCC 52657 infected mouse assessed as distension of duodenum at 20 mg/kg, ip qd for 5 days; assay type: organism-based; design: dose 20 mg/kg; conditions: in vivo, other, 120 h
Mus musculus [10] = experiment: Toxicity in Cryptococcus neoformans ATCC 52657 infected mouse assessed as signs of discomfort at 10 to 20 mg/kg, ip qd for 5 days after 2 hrs last post dose; assay type: organism-based; design: dose 10-20 mg/kg, route intraperitoneal; conditions: in vivo
Mus musculus [11] = experiment: Toxicity in Cryptococcus neoformans ATCC 52657 infected mouse assessed as distension of cecum at 20 mg/kg, ip qd for 5 days; assay type: organism-based, Caecum; design: dose 20 mg/kg, route intraperitoneal; conditions: in vivo, 120 h
Mus musculus [12] = experiment: Toxicity in Cryptococcus neoformans ATCC 52657 infected mouse assessed as decrease in mobility at 10 to 20 mg/kg, ip qd for 5 days; assay type: organism-based; design: dose 10-20 mg/kg, route intraperitoneal; conditions: in vivo, 120 h
Mus musculus [13] = experiment: Toxicity in Cryptococcus neoformans ATCC 52657 infected mouse assessed as distension of jejunum at 10 mg/kg, ip qd for 5 days; assay type: organism-based; design: dose 10 mg/kg, route intraperitoneal; conditions: in vivo, 120 h
Mus musculus [14] = experiment: Toxicity in Cryptococcus neoformans ATCC 52657 infected mouse assessed as enlargement of liver with fusion of hepatic lobes at 20 mg/kg, ip qd for 5 days; assay type: organism-based; design: dose 20 mg/kg, route intraperitoneal; conditions: in vivo, 120 h
Mus musculus [15] = experiment: Toxicity in Cryptococcus neoformans ATCC 52657 infected mouse assessed as distension of jejunum at 20 mg/kg, ip qd for 5 days; assay type: organism-based; design: dose 20 mg/kg, route intraperitoneal; conditions: in vivo, 120 h
Mus musculus [16] = experiment: Toxicity in Cryptococcus neoformans ATCC 52657 infected mouse assessed as distension of duodenum at 10 mg/kg, ip qd for 5 days; assay type: organism-based; design: dose 10 mg/kg; conditions: in vivo, other, 120 h
Mus musculus [17] = experiment: Toxicity in Cryptococcus neoformans ATCC 52657 infected mouse assessed as decrease in mobility at 10 to 20 mg/kg, ip qd for 5 days after 2 hrs last post dose; assay type: organism-based; design: dose 10-20 mg/kg, route intraperitoneal; conditions: in vivo
Mus musculus [18] = experiment: Toxicity in Cryptococcus neoformans ATCC 52657 infected mouse assessed as distension of cecum at 10 mg/kg, ip qd for 5 days; assay type: organism-based, Caecum; design: dose 10 mg/kg, route intraperitoneal; conditions: in vivo, 120 h
Candida albicans [19] = experiment: Antifungal activity against Candida albicans ATCC 90028 at 20 ug/ml by CLSI method; assay type: functional, organism-based
Mus musculus [20] = experiment: Toxicity in Cryptococcus neoformans ATCC 52657 infected mouse assessed as change in gross pathology of spleen at 10 to 20 mg/kg, ip qd for 5 days; assay type: organism-based; design: dose 10-20 mg/kg, route intraperitoneal; conditions: in vivo, 120 h
Aspergillus fumigatus [21] = experiment: Antifungal activity against Aspergillus fumigatus ATCC 90906 at 20 ug/ml by CLSI method; assay type: functional, organism-based
Cryptococcus neoformans [22] = experiment: Antifungal activity against Cryptococcus neoformans ATCC 90113 at 20 ug/ml by CLSI method; assay type: functional, organism-based
Pichia kudriavzevii = experiment: Antifungal activity against Candida krusei ATCC 6258 by CLSI method; assay type: functional, organism-based

SMILES | IC50 (Aspergillus fumigatus [1]) [µg/mL] | MIC (Aspergillus fumigatus [1]) [µg/mL] | IC50 (Cryptococcus neoformans [2]) [µg/mL] | MIC (Cryptococcus neoformans [2]) [µg/mL] | IC50 (Candida albicans [3]) [µg/mL] | MIC (Candida albicans [3]) [µg/mL] | IC50 (Vero) [µg/mL] | Activity (Cryptococcus neoformans [22]) | further results
COc1cccc2cc3sc4ccccc4c3[n+](C)c12.O=S(=O)([O-])C(F)(F)F | 3 | 5 | 15 | > 20 | 15 | > 20 |  |  | 
C[n+]1c2c(Cl)cccc2cc2sc3ccccc3c21.O=S(=O)([O-])C(F)(F)F | 6 | 10 | 4 | 10 |  |  | > 10 |  | Activity (Mus musculus [4]): Non-toxic; Activity (Mus musculus [5]): Non-toxic; Activity (Mus musculus [6]): Toxic; Activity (Mus musculus [7]): Non-toxic; Activity (Mus musculus [8]): Toxic; Activity (Mus musculus [9]): Toxic; Activity (Mus musculus [10]): Non-toxic; Activity (Mus musculus [11]): Toxic; Activity (Mus musculus [12]): Toxic; Activity (Mus musculus [13]): Toxic; Activity (Mus musculus [14]): Toxic; Activity (Mus musculus [15]): Toxic; Activity (Mus musculus [16]): Toxic; Activity (Mus musculus [17]): Non-toxic; Activity (Mus musculus [18]): Toxic; Activity (Candida albicans [19]): inactive; Activity (Mus musculus [20]): Non-toxic
C[n+]1c2ccccc2cc2sc3ccc(Cl)cc3c21.[I-] |  |  |  |  | 20 | > 20 | > 10 | inactive | Activity (Aspergillus fumigatus [21]): inactive
C[n+]1c2ccccc2cc2sc3cc(Cl)ccc3c21.[I-] | 9.5 | > 20 |  |  | 2.5 | > 20 | > 10 | inactive | 
[I-].c1ccc(Sc2cc3ccccc3[n+](CCCCCC3CCCCC3)c2)cc1 | 8.6 | 10 | 0.5 | 1.3 | 2.7 | 5 | 4.6 |  | MFC (Aspergillus fumigatus [1]): > 20 µg/mL; MFC (Cryptococcus neoformans [2]): 2.5 µg/mL; IC50 (Pichia kudriavzevii): 0.7 µg/mL; MFC (Pichia kudriavzevii): 2.5 µg/mL; MIC (Pichia kudriavzevii): 1.3 µg/mL
C[C@@H]1[C@H](O)[C@@H](C)/C=C/C=C/C=C/C=C/C=C/C=C/C=C/[C@H](O[C@@H]2O[C@H](C)[C@@H](O)[C@H](N)[C@@H]2O)C[C@@H]2O[C@](O)(C[C@@H](O)C[C@@H](O)[C@H](O)CC[C@@H](O)C[C@@H](O)CC(=O)O[C@H]1C)C[C@H](O)[C@H]2C(=O)O [AMPHOTERICIN B] | 1.5 (≈ 1.62 µM) | 2.5 (≈ 2.71 µM) | 1.5 (≈ 1.62 µM) | 2.5 (≈ 2.71 µM) |  | 0.6 (≈ 0.649 µM) |  |  | 
C[n+]1c2ccc(Cl)cc2cc2sc3ccccc3c21.[I-] |  | 2.5 | 15 | > 20 | 2 | > 20 | > 23.8 |  | 
COc1ccc2c(c1)cc1sc3ccccc3c1[n+]2C.[I-] | 20 |  |  | 8 | > 20 | > 20 | > 23.8 |  | 
C[n+]1c2ccccc2cc2[n-]c3ccccc3c21 [CRYPTOLEPINE] |  |  | 12.5 (≈ 53.8 µM) |  |  |  | 3.2 (≈ 13.8 µM) |  | 
COc1cccc2c1cc1sc3ccccc3c1[n+]2C |  |  |  |  |  |  |  | inactive | 
C[n+]1c2cccc(O)c2cc2sc3ccccc3c21 |  |  |  |  |  |  |  | inactive | Activity (Aspergillus fumigatus [21]): inactive; Activity (Candida albicans [19]): inactive
COc1ccc2sc3cc4ccccc4[n+](C)c3c2c1.[I-] | 8 | 20 |  |  |  |  |  | inactive | Activity (Candida albicans [19]): inactive
